Activity calls are given as the source filed them.
Columns and labels:
[1] = Counterscreen for IDE inhibitors: Luminescence-based cell-based high throughput dose response assay to identify compounds that are cytotoxic to HEK cells. [Related pubchem assays: 434962 (Primary screen (IDE inhibitors in singlicate)), 449730 (Counterscreen (Cytotoxicity in triplicate)), 435028 (Confirmation (IDE inhibitors in triplicate)) …; format: functional; settings: HEK293
Insulin-degrading enzyme = biological target: T1, Insulin-degrading enzyme (Homo sapiens, UniProt P14735); experiment: Dose Response: Fluorescence polarization-based cell-based high throughput dose response assay for inhibitors of insulin-degrading enzyme (IDE). [Related pubchem assays: 434962 (Primary screen (IDE inhibitors in singlicate)), 449730 (Counterscreen (Cytotoxicity in triplicate)), 435028 (Confirmation (IDE inhibitors in triplicate)), 434984 (Summary …; format: functional
T1 sequence (P14735 whole entry): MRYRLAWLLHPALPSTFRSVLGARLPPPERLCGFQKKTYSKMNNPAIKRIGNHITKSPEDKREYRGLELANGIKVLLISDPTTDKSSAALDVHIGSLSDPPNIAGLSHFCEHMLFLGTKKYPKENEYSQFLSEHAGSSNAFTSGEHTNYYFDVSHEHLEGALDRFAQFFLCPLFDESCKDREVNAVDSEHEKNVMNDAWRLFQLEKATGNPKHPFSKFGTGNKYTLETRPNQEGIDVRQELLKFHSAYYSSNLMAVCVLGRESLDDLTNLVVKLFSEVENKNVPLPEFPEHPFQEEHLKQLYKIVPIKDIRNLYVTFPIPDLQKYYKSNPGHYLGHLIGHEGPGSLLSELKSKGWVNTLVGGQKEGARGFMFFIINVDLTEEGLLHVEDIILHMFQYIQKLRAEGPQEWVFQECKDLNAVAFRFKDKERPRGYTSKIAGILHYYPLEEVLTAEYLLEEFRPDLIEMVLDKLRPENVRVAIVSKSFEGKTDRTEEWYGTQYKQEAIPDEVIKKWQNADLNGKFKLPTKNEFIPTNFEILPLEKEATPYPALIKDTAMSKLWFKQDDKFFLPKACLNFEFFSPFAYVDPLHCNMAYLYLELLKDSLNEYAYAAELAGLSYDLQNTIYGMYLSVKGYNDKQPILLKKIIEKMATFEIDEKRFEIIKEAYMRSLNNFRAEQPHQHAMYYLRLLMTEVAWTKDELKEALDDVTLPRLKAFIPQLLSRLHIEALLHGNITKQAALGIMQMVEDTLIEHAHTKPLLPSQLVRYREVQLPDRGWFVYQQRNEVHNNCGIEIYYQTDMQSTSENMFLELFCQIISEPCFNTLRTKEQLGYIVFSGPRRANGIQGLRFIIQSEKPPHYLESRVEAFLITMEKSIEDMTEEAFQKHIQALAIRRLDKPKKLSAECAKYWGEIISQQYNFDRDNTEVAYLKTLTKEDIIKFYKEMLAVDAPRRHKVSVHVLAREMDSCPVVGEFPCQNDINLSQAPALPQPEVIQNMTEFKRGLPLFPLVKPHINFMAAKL

[2] = CCR5-tropic HIV-1 fusion blockers – cell-based, CCR5-tropic Env, dose response (AID 2279); format: functional
[3] = A Cell Based Secondary Assay To Explore Cytotoxicity of Compounds that Sensitize Mycobacterium Tuberculosis to Beta-Lactam Antibiotics.; format: functional
Cytochrome P450 2D6 = Cytochrome P450 2D6 (Homo sapiens, UniProt P10635); experiment: qHTS Assay for Inhibitors and Substrates of Cytochrome P450 2D6. [Related pubchem assays: 410 ]; format: ADME; settings: read-out: Potency
Cytochrome P450 2D6, sequence (P10635 whole entry): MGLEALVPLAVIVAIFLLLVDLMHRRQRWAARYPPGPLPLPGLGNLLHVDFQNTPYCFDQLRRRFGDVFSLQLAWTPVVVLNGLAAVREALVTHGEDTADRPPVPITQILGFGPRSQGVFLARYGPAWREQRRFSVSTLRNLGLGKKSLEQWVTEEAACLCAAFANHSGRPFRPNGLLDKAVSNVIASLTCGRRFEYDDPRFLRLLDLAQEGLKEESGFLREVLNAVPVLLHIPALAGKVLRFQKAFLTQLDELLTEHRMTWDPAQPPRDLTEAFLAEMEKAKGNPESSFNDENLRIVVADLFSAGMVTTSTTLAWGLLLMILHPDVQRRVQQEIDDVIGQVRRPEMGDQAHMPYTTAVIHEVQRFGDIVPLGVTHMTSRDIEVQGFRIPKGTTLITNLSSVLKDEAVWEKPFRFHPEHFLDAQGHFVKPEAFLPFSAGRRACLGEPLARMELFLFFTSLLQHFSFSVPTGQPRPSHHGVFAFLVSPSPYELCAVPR

For `CCOC(=O)N1CCN(c2ccnc3cc(Cl)ccc23)CC1`, the IC50 [1] was 15.7 µM (not active) and the IC50 (Insulin-degrading enzyme) was 18.9 µM (not active).

With `COc1cc([N+](=O)[O-])cc(/C=C2/SC(=S)N(Cc3ccccc3)C2=O)c1O` the IC50 [2] was 8.82 µM (active).

In the case of `CN(c1ccc(C(=O)Nc2ccccc2Sc2ccccc2)cc1)S(C)(=O)=O`, the CC50 [3] was > 40 µM (active).

With `CC(=O)OCC1OC(C#Cc2ccc(F)cc2F)C=CC1OC(C)=O` (stereo not given) the AC50 (Cytochrome P450 2D6) was 6.31 µM (inconclusive).
